pKd: −log10 of the molar value. Numbered stars: 1 amine (or outer) side, 2 acyl side, 3 side chain; on linkers, the order of the positions; unused ones are H or OH. Bridge positions count the residues as written; N and C are the ends. Square brackets hold non-standard residues; d marks the D form. Peptide text beside a SMILES is read from it. * marks the point of attachment. FITC = O=C1OC2(c3ccc(O)cc3Oc3cc(O)ccc32)c2ccc(NC(=S)*)cc21; Phe(4-NO2) = N[C@@H](Cc1ccc([N+](=O)[O-])cc1)C(=O)O; Phe(3,4-F2) = N[C@@H](Cc1ccc(F)c(F)c1)C(=O)O; Bip = N[C@@H](Cc1ccc(-c2ccccc2)cc1)C(=O)O; Phe(4-Br) = N[C@@H](Cc1ccc(Br)cc1)C(=O)O; Phe(4-Cl) = N[C@@H](Cc1ccc(Cl)cc1)C(=O)O; Hag = O=C([C@H](CCC=[*:3])N[*:1])[*:2]; Phe(3-F) = N[C@@H](Cc1cccc(F)c1)C(=O)O; Phe(4-F) = N[C@@H](Cc1ccc(F)cc1)C(=O)O; Phe(4-I) = N[C@@H](Cc1ccc(I)cc1)C(=O)O; Gla = N[C@@H](CC(C(=O)O)C(=O)O)C(=O)O; AllylGly = C=CC[C@H](N)C(=O)O
molecular target: PRMT5/MEP50 complex (Homo sapiens, UniProt O14744); assay: (§1) Binding affinity to PRMT5/MEP50 (unknown origin) assessed as dissociation constant by FITC- Competitive binding assay; type: protein-complex assay
Sequence (O14744 whole entry): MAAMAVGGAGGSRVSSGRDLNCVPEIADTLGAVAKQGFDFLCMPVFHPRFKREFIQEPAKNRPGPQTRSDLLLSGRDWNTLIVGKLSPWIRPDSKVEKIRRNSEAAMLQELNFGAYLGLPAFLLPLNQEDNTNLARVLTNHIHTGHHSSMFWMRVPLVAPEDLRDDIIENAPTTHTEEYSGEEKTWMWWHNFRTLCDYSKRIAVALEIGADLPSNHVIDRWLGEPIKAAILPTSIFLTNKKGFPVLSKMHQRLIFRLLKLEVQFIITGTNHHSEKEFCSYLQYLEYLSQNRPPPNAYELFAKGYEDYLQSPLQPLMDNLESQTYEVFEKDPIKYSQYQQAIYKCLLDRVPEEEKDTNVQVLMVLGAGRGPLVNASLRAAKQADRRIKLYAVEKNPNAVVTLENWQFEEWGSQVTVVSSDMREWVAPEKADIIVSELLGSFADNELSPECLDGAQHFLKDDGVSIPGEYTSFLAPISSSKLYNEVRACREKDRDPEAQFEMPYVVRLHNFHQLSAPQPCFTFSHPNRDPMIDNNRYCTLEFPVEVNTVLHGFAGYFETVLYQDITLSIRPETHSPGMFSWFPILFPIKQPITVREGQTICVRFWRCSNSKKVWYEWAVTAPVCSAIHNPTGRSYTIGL
Sequence (Q9BQA1 whole entry, further chain): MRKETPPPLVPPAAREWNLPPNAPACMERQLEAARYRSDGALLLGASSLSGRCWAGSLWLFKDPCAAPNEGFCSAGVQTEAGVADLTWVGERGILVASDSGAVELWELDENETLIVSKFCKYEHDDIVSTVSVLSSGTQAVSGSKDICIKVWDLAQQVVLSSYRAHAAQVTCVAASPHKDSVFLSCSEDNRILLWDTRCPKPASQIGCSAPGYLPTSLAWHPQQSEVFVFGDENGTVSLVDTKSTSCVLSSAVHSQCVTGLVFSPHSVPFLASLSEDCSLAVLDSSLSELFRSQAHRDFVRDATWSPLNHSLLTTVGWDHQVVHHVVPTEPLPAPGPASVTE

Point of comparison: CC(=O)N[C@H](C(=O)N1CCC[C@H]1C(=O)NCC(=O)N[C@@H](CCC(N)=O)C(=O)N[C@@H](Cc1ccc(-c2ccccc2)cc1)C(=O)N[C@@H](CC(=O)O)C(=O)N[C@@H](CC(=O)O)C(=O)N[C@@H](C)C(=O)N[C@@H](CC(=O)O)C(=O)N[C@@H](CCCCNC(=S)Nc1ccc2c(c1)C(=O)OC21c2ccc(O)cc2Oc2cc(O)ccc21)C(N)=O)C(C)C (Ac-VPGQ[Bip]DDADK(FITC)-NH2), pKd 6.35. Against it:
- CC(=O)N[C@H](C(=O)N1CCC[C@H]1C(=O)N[C@H]1CC/C=C/C[C@@H](C(=O)N[C@@H](CC(=O)O)C(=O)N[C@@H](C)C(=O)N[C@@H](CC(=O)O)C(=O)N[C@@H](CCCCNC(=S)Nc2ccc3c(c2)C(=O)OC32c3ccc(O)cc3Oc3cc(O)ccc32)C(N)=O)NC(=O)[C@H](Cc2ccccc2)NC(=O)[C@H](CCC(N)=O)NC1=O)C(C)C (Ac-VP[Hag]QF[AllylGly]DADK(FITC)-NH2; staple (E) 3-6) — within 0.2 log units, 6.25
- CC(=O)N[C@H](C(=O)N1CCC[C@H]1C(=O)NCC(=O)N[C@@H](CCC(N)=O)C(=O)N[C@@H](Cc1ccc(Br)cc1)C(=O)N[C@@H](CC(=O)O)C(=O)N[C@@H](CC(=O)O)C(=O)N[C@@H](C)C(=O)N[C@@H](CC(=O)O)C(=O)N[C@@H](CCCCNC(=S)Nc1ccc2c(c1)C(=O)OC21c2ccc(O)cc2Oc2cc(O)ccc21)C(N)=O)C(C)C (Ac-VPGQ[Phe(4-Br)]DDADK(FITC)-NH2) — within 0.2 log units, 6.50
- CC(C)[C@H](NC(=O)[C@H](CCCNC(=N)N)NC(=O)[C@H](CO)NC(=O)COCCOCCNC(=S)Nc1ccc2c(c1)C(=O)OC21c2ccc(O)cc2Oc2cc(O)ccc21)C(=O)N[C@H](C(=O)N1CCC[C@H]1C(=O)N[C@H]1CCCC[C@@H](C(=O)N[C@@H](CC(=O)O)C(=O)N[C@@H](C)C(=O)N[C@@H](CC(=O)O)C(N)=O)NC(=O)[C@H](Cc2ccccc2)NC(=O)[C@H](CCC(N)=O)NC1=O)C(C)C — 0.46 log units lower, 5.89
- CC(=O)N[C@H](C(=O)N1CCC[C@H]1C(=O)NCC(=O)N[C@@H](CCC(N)=O)C(=O)N[C@@H](Cc1ccc(F)cc1)C(=O)N[C@@H](CC(=O)O)C(=O)N[C@@H](CC(=O)O)C(=O)N[C@@H](C)C(=O)N[C@@H](CC(=O)O)C(=O)N[C@@H](CCCCNC(=S)Nc1ccc2c(c1)C(=O)OC21c2ccc(O)cc2Oc2cc(O)ccc21)C(N)=O)C(C)C (Ac-VPGQ[Phe(4-F)]DDADK(FITC)-NH2) — within 0.2 log units, 6.41
- CC(=O)N[C@H](C(=O)N1CCC[C@H]1C(=O)NCC(=O)N[C@@H](CCC(N)=O)C(=O)N[C@@H](Cc1ccc([N+](=O)[O-])cc1)C(=O)N[C@@H](CC(=O)O)C(=O)N[C@@H](CC(=O)O)C(=O)N[C@@H](C)C(=O)N[C@@H](CC(=O)O)C(=O)N[C@@H](CCCCNC(=S)Nc1ccc2c(c1)C(=O)OC21c2ccc(O)cc2Oc2cc(O)ccc21)C(N)=O)C(C)C (Ac-VPGQ[Phe(4-NO2)]DDADK(FITC)-NH2) — 0.28 log units higher, 6.63
- CC(=O)N[C@H](C(=O)N1CCC[C@H]1C(=O)NCC(=O)N[C@@H](CCC(N)=O)C(=O)N[C@@H](Cc1ccc(I)cc1)C(=O)N[C@@H](CC(=O)O)C(=O)N[C@@H](CC(=O)O)C(=O)N[C@@H](C)C(=O)N[C@@H](CC(=O)O)C(=O)N[C@@H](CCCCNC(=S)Nc1ccc2c(c1)C(=O)OC21c2ccc(O)cc2Oc2cc(O)ccc21)C(N)=O)C(C)C (Ac-VPGQ[Phe(4-I)]DDADK(FITC)-NH2) — 0.20 log units higher, 6.55
- CC(=O)N[C@H](C(=O)N1CCC[C@H]1C(=O)NCC(=O)N[C@@H](CCC(N)=O)C(=O)N[C@@H](Cc1ccccc1)C(=O)N[C@@H](CC(=O)O)C(=O)N[C@@H](CC(=O)O)C(=O)N[C@@H](C)C(=O)N[C@@H](CC(C(=O)O)C(=O)O)C(=O)N[C@@H](CCCCNC(=S)Nc1ccc2c(c1)C(=O)OC21c2ccc(O)cc2Oc2cc(O)ccc21)C(N)=O)C(C)C (Ac-VPGQFDDA[Gla]K(FITC)-NH2) — 0.26 log units higher, 6.61
- CC(=O)N[C@H](C(=O)N1CCC[C@H]1C(=O)NCC(=O)N[C@@H](CCC(N)=O)C(=O)N[C@@H](Cc1ccc(Cl)cc1)C(=O)N[C@@H](CC(=O)O)C(=O)N[C@@H](CC(=O)O)C(=O)N[C@@H](C)C(=O)N[C@@H](CC(C(=O)O)C(=O)O)C(=O)N[C@@H](CCCCNC(=S)Nc1ccc2c(c1)C(=O)OC21c2ccc(O)cc2Oc2cc(O)ccc21)C(N)=O)C(C)C (Ac-VPGQ[Phe(4-Cl)]DDA[Gla]K(FITC)-NH2) — 0.49 log units higher, 6.84
- CC(=O)N[C@H](C(=O)N1CCC[C@H]1C(=O)NCC(=O)N[C@@H](CCC(N)=O)C(=O)N[C@@H](Cc1cccc(F)c1)C(=O)N[C@@H](CC(=O)O)C(=O)N[C@@H](CC(=O)O)C(=O)N[C@@H](C)C(=O)N[C@@H](CC(=O)O)C(=O)N[C@@H](CCCCNC(=S)Nc1ccc2c(c1)C(=O)OC21c2ccc(O)cc2Oc2cc(O)ccc21)C(N)=O)C(C)C (Ac-VPGQ[Phe(3-F)]DDADK(FITC)-NH2) — within 0.2 log units, 6.18
- CC(=O)N[C@H](C(=O)N1CCC[C@H]1C(=O)NCC(=O)N[C@@H](CCC(N)=O)C(=O)N[C@@H](Cc1ccc(Cl)cc1)C(=O)N[C@@H](CC(=O)O)C(=O)N[C@@H](CC(=O)O)C(=O)N[C@@H](C)C(=O)N[C@@H](CC(=O)O)C(=O)N[C@@H](CCCCNC(=S)Nc1ccc2c(c1)C(=O)OC21c2ccc(O)cc2Oc2cc(O)ccc21)C(N)=O)C(C)C (Ac-VPGQ[Phe(4-Cl)]DDADK(FITC)-NH2) — 0.25 log units higher, 6.60
- CC(=O)N[C@H](C(=O)N1CCC[C@H]1C(=O)NCC(=O)N[C@@H](CCC(N)=O)C(=O)N[C@@H](Cc1ccc(F)c(F)c1)C(=O)N[C@@H](CC(=O)O)C(=O)N[C@@H](CC(=O)O)C(=O)N[C@@H](C)C(=O)N[C@@H](CC(=O)O)C(=O)N[C@@H](CCCCNC(=S)Nc1ccc2c(c1)C(=O)OC21c2ccc(O)cc2Oc2cc(O)ccc21)C(N)=O)C(C)C (Ac-VPGQ[Phe(3,4-F2)]DDADK(FITC)-NH2) — within 0.2 log units, 6.39
- CC(=O)N[C@H](C(=O)N1CCC[C@H]1C(=O)N[C@H]1CCCCCC[C@@H](C(=O)N[C@@H](CC(=O)O)C(=O)N[C@@H](C)C(=O)N[C@@H](CC(=O)O)C(=O)N[C@@H](CCCCNC(=S)Nc2ccc3c(c2)C(=O)OC32c3ccc(O)cc3Oc3cc(O)ccc32)C(N)=O)NC(=O)[C@H](Cc2ccccc2)NC(=O)[C@H](CCC(N)=O)NC1=O)C(C)C — lower, < 5.70
- CC(=O)N[C@H](C(=O)N1CCC[C@H]1C(=O)NCC(=O)N[C@@H](CCC(N)=O)C(=O)N[C@@H](Cc1ccc([N+](=O)[O-])cc1)C(=O)N[C@@H](CC(=O)O)C(=O)N[C@@H](CC(=O)O)C(=O)N[C@@H](C)C(=O)N[C@@H](CC(C(=O)O)C(=O)O)C(=O)N[C@@H](CCCCNC(=S)Nc1ccc2c(c1)C(=O)OC21c2ccc(O)cc2Oc2cc(O)ccc21)C(N)=O)C(C)C (Ac-VPGQ[Phe(4-NO2)]DDA[Gla]K(FITC)-NH2) — 0.76 log units higher, 7.11

molecular target: PRMT5/MEP50 complex (Homo sapiens, UniProt O14744+Q9BQA1); assay: as §1; type: protein-complex assay
Sequence (O14744 whole entry): as the sequence (O14744 whole entry) above
Sequence (Q9BQA1 whole entry): as the sequence (Q9BQA1 whole entry, further chain) above

Point of comparison: CC(=O)N[C@H](C(=O)N1CCC[C@@H]1C(=O)N[C@H]1CCCCC[C@@H](C(=O)N[C@@H](CC(=O)O)C(=O)N[C@@H](C)C(=O)N[C@@H](CC(C(=O)O)C(=O)O)C(=O)N[C@@H](CCCCNC(=S)Nc2ccc3c(c2)C(=O)OC32c3ccc(O)cc3Oc3cc(O)ccc32)C(N)=O)NC(=O)[C@H](Cc2ccc([N+](=O)[O-])cc2)NC(=O)[C@H](CCC(N)=O)NC1=O)C(C)C, pKd 7.05. Against it:
- CC(=O)N[C@H](C(=O)N1CCC[C@H]1C(=O)N[C@H]1C/C=C\CC[C@H](C(=O)N[C@@H](CC(=O)O)C(=O)N[C@@H](C)C(=O)N[C@@H](CC(=O)O)C(=O)N[C@@H](CCCCNC(=S)Nc2ccc3c(c2)C(=O)OC32c3ccc(O)cc3Oc3cc(O)ccc32)C(N)=O)NC(=O)[C@H](Cc2ccccc2)NC(=O)[C@H](CCC(N)=O)NC1=O)C(C)C — lower, < 5.70
- CC(C)[C@H](NC(=O)[C@H](CCCNC(=N)N)NC(=O)[C@H](CO)NC(=O)COCCOCCNC(=S)Nc1ccc2c(c1)C(=O)OC21c2ccc(O)cc2Oc2cc(O)ccc21)C(=O)N[C@H](C(=O)N1CCC[C@H]1C(=O)N[C@H]1C/C=C/C[C@H](C(=O)N[C@@H](CC(=O)O)C(=O)N[C@@H](C)C(=O)N[C@@H](CC(=O)O)C(N)=O)NC(=O)[C@H](Cc2ccccc2)NC(=O)[C@H](CCC(N)=O)NC1=O)C(C)C (stereo in doubt; form 1) — lower, < 5.70
- CC(C)[C@H](NC(=O)[C@H](CCCNC(=N)N)NC(=O)[C@H](CO)NC(=O)COCCOCCNC(=S)Nc1ccc2c(c1)C(=O)OC21c2ccc(O)cc2Oc2cc(O)ccc21)C(=O)N[C@H](C(=O)N1CCC[C@H]1C(=O)N[C@H]1CCNC(=O)C[C@H](C(=O)N[C@@H](CC(=O)O)C(=O)N[C@@H](C)C(=O)N[C@@H](CC(=O)O)C(N)=O)NC(=O)[C@H](Cc2ccccc2)NC(=O)[C@H](CCC(N)=O)NC1=O)C(C)C — lower, < 5.70
- CC(C)[C@H](NC(=O)[C@H](CCCNC(=N)N)NC(=O)[C@H](CO)NC(=O)COCCOCCNC(=S)Nc1ccc2c(c1)C(=O)OC21c2ccc(O)cc2Oc2cc(O)ccc21)C(=O)N[C@H](C(=O)N1CCC[C@H]1C(=O)N[C@H]1CNC(=O)CC[C@H](C(=O)N[C@@H](CC(=O)O)C(=O)N[C@@H](C)C(=O)N[C@@H](CC(=O)O)C(N)=O)NC(=O)[C@H](Cc2ccccc2)NC(=O)[C@H](CCC(N)=O)NC1=O)C(C)C — lower, < 5.70
- CC(=O)N[C@H](C(=O)N1CCC[C@H]1C(=O)N[C@H]1CCCCC[C@H](C(=O)N[C@@H](CC(=O)O)C(=O)N[C@@H](C)C(=O)N[C@@H](CC(=O)O)C(=O)N[C@@H](CCCCNC(=S)Nc2ccc3c(c2)C(=O)OC32c3ccc(O)cc3Oc3cc(O)ccc32)C(N)=O)NC(=O)[C@H](Cc2ccccc2)NC(=O)[C@H](CCC(N)=O)NC1=O)C(C)C — lower, < 5.70
- CC(=O)N[C@H](C(=O)N1CCC[C@H]1C(=O)N[C@H]1CC/C=C/CC[C@H](C(=O)N[C@@H](CC(=O)O)C(=O)N[C@@H](C)C(=O)N[C@@H](CC(=O)O)C(=O)N[C@@H](CCCCNC(=S)Nc2ccc3c(c2)C(=O)OC32c3ccc(O)cc3Oc3cc(O)ccc32)C(N)=O)NC(=O)[C@H](Cc2ccccc2)NC(=O)[C@H](CCC(N)=O)NC1=O)C(C)C — lower, < 5.70
- CC(C)[C@H](NC(=O)[C@H](CCCNC(=N)N)NC(=O)[C@H](CO)NC(=O)COCCOCCNC(=S)Nc1ccc2c(c1)C(=O)OC21c2ccc(O)cc2Oc2cc(O)ccc21)C(=O)N[C@H](C(=O)N1CCC[C@H]1C(=O)N[C@H]1CCCC[C@H](C(=O)N[C@@H](CC(=O)O)C(=O)N[C@@H](C)C(=O)N[C@@H](CC(=O)O)C(N)=O)NC(=O)[C@H](Cc2ccccc2)NC(=O)[C@H](CCC(N)=O)NC1=O)C(C)C — lower, < 5.70
- CC(C)[C@H](NC(=O)[C@H](CCCNC(=N)N)NC(=O)[C@H](CO)NC(=O)COCCOCCNC(=S)Nc1ccc2c(c1)C(=O)OC21c2ccc(O)cc2Oc2cc(O)ccc21)C(=O)N[C@H](C(=O)N1CCC[C@H]1C(=O)N[C@H]1CNC(=O)C[C@H](C(=O)N[C@@H](CC(=O)O)C(=O)N[C@@H](C)C(=O)N[C@@H](CC(=O)O)C(N)=O)NC(=O)[C@H](Cc2ccccc2)NC(=O)[C@H](CCC(N)=O)NC1=O)C(C)C — lower, < 5.70

Reference: ChEMBL document CHEMBL5214998, “Development of Macrocyclic PRMT5-Adaptor Protein Interaction Inhibitors” (J Med Chem, 2022)
